Laboratory results taken from PubChem BioAssay (NCI).
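Where inhibition never reached the appropriate level, the endpoint shown equals the highest concentration tested. Otherwise, values were interpolated linearly from a five-concentration, 48-hour dose response in 96-well plates. GI50 is the concentration that inhibits growth by half. TGI: concentration producing complete growth inhibition.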

system: NCI-H226 lung; experiment: inhibition of tumour cell growth, NCI panel, 48 h

| Compound | TGI [µM] |
| --- | --- |
| CCCCCCC(=O)C/C(=N/NC(N)=S)C(=O)NC1C2CC3CC(C2)CC1C3 (configuration not stated) | > 100 |
| CC1=CC(=O)N(n2c(Cc3ccccc3)n[nH]c2=O)C1=O | > 100 |
| CCNc1cc2c(cc1O)CC[C@@H]1[C@@H]2CC[C@]2(C)[C@@H](O)CC[C@@H]12 | 21.6 |
| O=[N+]([O-])c1cccc2nc3ccccc3c(NCCC[N+]3([O-])CCOCC3)c12 | 0.529 |
| NCCCCC(N)C(=O)NCCNc1ccc(NCCNC(=O)C(N)CCCCN)c2c1C(=O)c1ccccc1C2=O (configuration not stated) | > 100 |
| C=CCc1cc(-c2cc(CC=C)c(O)c(CNCCCl)c2)cc(CNCCCl)c1O | 35.4 |

system: NCI-H23 lung; experiment: inhibition of tumour cell growth, NCI panel, 48 h

| Compound | TGI [µM] |
| --- | --- |
| CCCCCCC(=O)C/C(=N/NC(N)=S)C(=O)NC1C2CC3CC(C2)CC1C3 (configuration not stated) | > 100 |
| CC1=CC(=O)N(n2c(Cc3ccccc3)n[nH]c2=O)C1=O | > 100 |
| CCNc1cc2c(cc1O)CC[C@@H]1[C@@H]2CC[C@]2(C)[C@@H](O)CC[C@@H]12 | 28.7 |
| O=[N+]([O-])c1cccc2nc3ccccc3c(NCCC[N+]3([O-])CCOCC3)c12 | 0.316 |
| NCCCCC(N)C(=O)NCCNc1ccc(NCCNC(=O)C(N)CCCCN)c2c1C(=O)c1ccccc1C2=O (configuration not stated) | > 100 |
| C=CCc1cc(-c2cc(CC=C)c(O)c(CNCCCl)c2)cc(CNCCCl)c1O | 31.3 |
| CC(C)(C)c1ccc(-c2nc3ccc(Cl)cc3c(=O)o2)cc1 | 35 |

system: NCI-H460 lung; experiment: inhibition of tumour cell growth, NCI panel, 48 h

| Compound | TGI [µM] |
| --- | --- |
| CCCCCCC(=O)C/C(=N/NC(N)=S)C(=O)NC1C2CC3CC(C2)CC1C3 (configuration not stated) | > 100 |
| CC1=CC(=O)N(n2c(Cc3ccccc3)n[nH]c2=O)C1=O | > 100 |
| CCNc1cc2c(cc1O)CC[C@@H]1[C@@H]2CC[C@]2(C)[C@@H](O)CC[C@@H]12 | 13.7 |
| O=[N+]([O-])c1cccc2nc3ccccc3c(NCCC[N+]3([O-])CCOCC3)c12 | 0.462 |
| NCCCCC(N)C(=O)NCCNc1ccc(NCCNC(=O)C(N)CCCCN)c2c1C(=O)c1ccccc1C2=O (configuration not stated) | > 100 |
| C=CCc1cc(-c2cc(CC=C)c(O)c(CNCCCl)c2)cc(CNCCCl)c1O | 37 |
| CC(C)(C)c1ccc(-c2nc3ccc(Cl)cc3c(=O)o2)cc1 | > 100 |

system: NCI-H522 lung; experiment: inhibition of tumour cell growth, NCI panel, 48 h

| Compound | TGI [µM] |
| --- | --- |
| CC1=CC(=O)N(n2c(Cc3ccccc3)n[nH]c2=O)C1=O | > 100 |
| CCNc1cc2c(cc1O)CC[C@@H]1[C@@H]2CC[C@]2(C)[C@@H](O)CC[C@@H]12 | 11.8 |
| O=[N+]([O-])c1cccc2nc3ccccc3c(NCCC[N+]3([O-])CCOCC3)c12 | 0.462 |
| NCCCCC(N)C(=O)NCCNc1ccc(NCCNC(=O)C(N)CCCCN)c2c1C(=O)c1ccccc1C2=O (configuration not stated) | > 100 |
| C=CCc1cc(-c2cc(CC=C)c(O)c(CNCCCl)c2)cc(CNCCCl)c1O | 32.8 |
| CC(C)(C)c1ccc(-c2nc3ccc(Cl)cc3c(=O)o2)cc1 | 29.7 |

system: NCI/ADR-RES ovarian; experiment: inhibition of tumour cell growth, NCI panel, 48 h

| Compound | TGI [µM] |
| --- | --- |
| CC1=CC(=O)N(n2c(Cc3ccccc3)n[nH]c2=O)C1=O | > 100 |
| CCNc1cc2c(cc1O)CC[C@@H]1[C@@H]2CC[C@]2(C)[C@@H](O)CC[C@@H]12 | 20.9 |
| O=[N+]([O-])c1cccc2nc3ccccc3c(NCCC[N+]3([O-])CCOCC3)c12 | 39.2 |
| NCCCCC(N)C(=O)NCCNc1ccc(NCCNC(=O)C(N)CCCCN)c2c1C(=O)c1ccccc1C2=O (configuration not stated) | > 100 |
| CC(C)(C)c1ccc(-c2nc3ccc(Cl)cc3c(=O)o2)cc1 | 67.1 |

system: OVCAR-3 ovarian; experiment: inhibition of tumour cell growth, NCI panel, 48 h

| Compound | TGI [µM] | GI50 [µM] |
| --- | --- | --- |
| CCCCCCC(=O)C/C(=N/NC(N)=S)C(=O)NC1C2CC3CC(C2)CC1C3 (configuration not stated) | > 100 | – |
| CC1=CC(=O)N(n2c(Cc3ccccc3)n[nH]c2=O)C1=O | > 100 | – |
| CCNc1cc2c(cc1O)CC[C@@H]1[C@@H]2CC[C@]2(C)[C@@H](O)CC[C@@H]12 | 3.63 | 0.815 |
| O=[N+]([O-])c1cccc2nc3ccccc3c(NCCC[N+]3([O-])CCOCC3)c12 | 0.474 | – |
| NCCCCC(N)C(=O)NCCNc1ccc(NCCNC(=O)C(N)CCCCN)c2c1C(=O)c1ccccc1C2=O (configuration not stated) | > 100 | – |
| C=CCc1cc(-c2cc(CC=C)c(O)c(CNCCCl)c2)cc(CNCCCl)c1O | 43.9 | – |
| CC(C)(C)c1ccc(-c2nc3ccc(Cl)cc3c(=O)o2)cc1 | 34.6 | – |

system: OVCAR-4 ovarian; experiment: inhibition of tumour cell growth, NCI panel, 48 h

| Compound | TGI [µM] |
| --- | --- |
| CCCCCCC(=O)C/C(=N/NC(N)=S)C(=O)NC1C2CC3CC(C2)CC1C3 (configuration not stated) | > 100 |
| CC1=CC(=O)N(n2c(Cc3ccccc3)n[nH]c2=O)C1=O | > 100 |
| CCNc1cc2c(cc1O)CC[C@@H]1[C@@H]2CC[C@]2(C)[C@@H](O)CC[C@@H]12 | 21.5 |
| O=[N+]([O-])c1cccc2nc3ccccc3c(NCCC[N+]3([O-])CCOCC3)c12 | 0.455 |
| NCCCCC(N)C(=O)NCCNc1ccc(NCCNC(=O)C(N)CCCCN)c2c1C(=O)c1ccccc1C2=O (configuration not stated) | > 100 |
| C=CCc1cc(-c2cc(CC=C)c(O)c(CNCCCl)c2)cc(CNCCCl)c1O | 56.7 |
| CC(C)(C)c1ccc(-c2nc3ccc(Cl)cc3c(=O)o2)cc1 | 63.1 |

system: OVCAR-5 ovarian; experiment: inhibition of tumour cell growth, NCI panel, 48 h

| Compound | TGI [µM] |
| --- | --- |
| CCCCCCC(=O)C/C(=N/NC(N)=S)C(=O)NC1C2CC3CC(C2)CC1C3 (configuration not stated) | > 100 |
| CC1=CC(=O)N(n2c(Cc3ccccc3)n[nH]c2=O)C1=O | > 100 |
| CCNc1cc2c(cc1O)CC[C@@H]1[C@@H]2CC[C@]2(C)[C@@H](O)CC[C@@H]12 | 34.7 |
| O=[N+]([O-])c1cccc2nc3ccccc3c(NCCC[N+]3([O-])CCOCC3)c12 | 1.5 |
| NCCCCC(N)C(=O)NCCNc1ccc(NCCNC(=O)C(N)CCCCN)c2c1C(=O)c1ccccc1C2=O (configuration not stated) | > 100 |
| CC(C)(C)c1ccc(-c2nc3ccc(Cl)cc3c(=O)o2)cc1 | 80.9 |

system: OVCAR-8 ovarian; experiment: inhibition of tumour cell growth, NCI panel, 48 h

| Compound | TGI [µM] |
| --- | --- |
| CCCCCCC(=O)C/C(=N/NC(N)=S)C(=O)NC1C2CC3CC(C2)CC1C3 (configuration not stated) | > 100 |
| CC1=CC(=O)N(n2c(Cc3ccccc3)n[nH]c2=O)C1=O | > 100 |
| CCNc1cc2c(cc1O)CC[C@@H]1[C@@H]2CC[C@]2(C)[C@@H](O)CC[C@@H]12 | 24.1 |
| O=[N+]([O-])c1cccc2nc3ccccc3c(NCCC[N+]3([O-])CCOCC3)c12 | 3.44 |
| NCCCCC(N)C(=O)NCCNc1ccc(NCCNC(=O)C(N)CCCCN)c2c1C(=O)c1ccccc1C2=O (configuration not stated) | > 69 |
| C=CCc1cc(-c2cc(CC=C)c(O)c(CNCCCl)c2)cc(CNCCCl)c1O | 49.4 |
| CC(C)(C)c1ccc(-c2nc3ccc(Cl)cc3c(=O)o2)cc1 | 49.3 |

system: PC-3 prostate; experiment: inhibition of tumour cell growth, NCI panel, 48 h

| Compound | TGI [µM] |
| --- | --- |
| CC1=CC(=O)N(n2c(Cc3ccccc3)n[nH]c2=O)C1=O | > 100 |
| CCNc1cc2c(cc1O)CC[C@@H]1[C@@H]2CC[C@]2(C)[C@@H](O)CC[C@@H]12 | 22.8 |
| O=[N+]([O-])c1cccc2nc3ccccc3c(NCCC[N+]3([O-])CCOCC3)c12 | 2.22 |
| NCCCCC(N)C(=O)NCCNc1ccc(NCCNC(=O)C(N)CCCCN)c2c1C(=O)c1ccccc1C2=O (configuration not stated) | > 100 |
| CC(C)(C)c1ccc(-c2nc3ccc(Cl)cc3c(=O)o2)cc1 | 92.1 |

system: RPMI-8226 leukemia; experiment: inhibition of tumour cell growth, NCI panel, 48 h

| Compound | TGI [µM] |
| --- | --- |
| CCCCCCC(=O)C/C(=N/NC(N)=S)C(=O)NC1C2CC3CC(C2)CC1C3 (configuration not stated) | > 100 |
| CC1=CC(=O)N(n2c(Cc3ccccc3)n[nH]c2=O)C1=O | > 100 |
| CCNc1cc2c(cc1O)CC[C@@H]1[C@@H]2CC[C@]2(C)[C@@H](O)CC[C@@H]12 | 63.5 |
| O=[N+]([O-])c1cccc2nc3ccccc3c(NCCC[N+]3([O-])CCOCC3)c12 | 4.69 |
| NCCCCC(N)C(=O)NCCNc1ccc(NCCNC(=O)C(N)CCCCN)c2c1C(=O)c1ccccc1C2=O (configuration not stated) | > 100 |
| C=CCc1cc(-c2cc(CC=C)c(O)c(CNCCCl)c2)cc(CNCCCl)c1O | 61.9 |
| CC(C)(C)c1ccc(-c2nc3ccc(Cl)cc3c(=O)o2)cc1 | 54.1 |

system: RXF 393 renal; experiment: inhibition of tumour cell growth, NCI panel, 48 h

| Compound | TGI [µM] |
| --- | --- |
| CCCCCCC(=O)C/C(=N/NC(N)=S)C(=O)NC1C2CC3CC(C2)CC1C3 (configuration not stated) | > 100 |
| CC1=CC(=O)N(n2c(Cc3ccccc3)n[nH]c2=O)C1=O | > 100 |
| CCNc1cc2c(cc1O)CC[C@@H]1[C@@H]2CC[C@]2(C)[C@@H](O)CC[C@@H]12 | 20.6 |
| O=[N+]([O-])c1cccc2nc3ccccc3c(NCCC[N+]3([O-])CCOCC3)c12 | 0.366 |
| NCCCCC(N)C(=O)NCCNc1ccc(NCCNC(=O)C(N)CCCCN)c2c1C(=O)c1ccccc1C2=O (configuration not stated) | 21.6 |
| CC(C)(C)c1ccc(-c2nc3ccc(Cl)cc3c(=O)o2)cc1 | 87.1 |

system: SF-268 CNS; experiment: inhibition of tumour cell growth, NCI panel, 48 h

| Compound | TGI [µM] |
| --- | --- |
| CCCCCCC(=O)C/C(=N/NC(N)=S)C(=O)NC1C2CC3CC(C2)CC1C3 (configuration not stated) | > 100 |
| CC1=CC(=O)N(n2c(Cc3ccccc3)n[nH]c2=O)C1=O | > 100 |
| CCNc1cc2c(cc1O)CC[C@@H]1[C@@H]2CC[C@]2(C)[C@@H](O)CC[C@@H]12 | 37.9 |
| O=[N+]([O-])c1cccc2nc3ccccc3c(NCCC[N+]3([O-])CCOCC3)c12 | 1.91 |
| NCCCCC(N)C(=O)NCCNc1ccc(NCCNC(=O)C(N)CCCCN)c2c1C(=O)c1ccccc1C2=O (configuration not stated) | > 100 |
| C=CCc1cc(-c2cc(CC=C)c(O)c(CNCCCl)c2)cc(CNCCCl)c1O | 60.5 |
| CC(C)(C)c1ccc(-c2nc3ccc(Cl)cc3c(=O)o2)cc1 | 77.3 |

system: SF-295 CNS; experiment: inhibition of tumour cell growth, NCI panel, 48 h

| Compound | TGI [µM] |
| --- | --- |
| CCCCCCC(=O)C/C(=N/NC(N)=S)C(=O)NC1C2CC3CC(C2)CC1C3 (configuration not stated) | > 100 |
| CC1=CC(=O)N(n2c(Cc3ccccc3)n[nH]c2=O)C1=O | > 100 |
| CCNc1cc2c(cc1O)CC[C@@H]1[C@@H]2CC[C@]2(C)[C@@H](O)CC[C@@H]12 | 13.3 |
| O=[N+]([O-])c1cccc2nc3ccccc3c(NCCC[N+]3([O-])CCOCC3)c12 | 1.38 |
| NCCCCC(N)C(=O)NCCNc1ccc(NCCNC(=O)C(N)CCCCN)c2c1C(=O)c1ccccc1C2=O (configuration not stated) | > 100 |
| C=CCc1cc(-c2cc(CC=C)c(O)c(CNCCCl)c2)cc(CNCCCl)c1O | 33.8 |
| CC(C)(C)c1ccc(-c2nc3ccc(Cl)cc3c(=O)o2)cc1 | 58.1 |

system: SF-539 CNS; experiment: inhibition of tumour cell growth, NCI panel, 48 h

| Compound | TGI [µM] | GI50 [µM] |
| --- | --- | --- |
| CC1=CC(=O)N(n2c(Cc3ccccc3)n[nH]c2=O)C1=O | > 100 | – |
| CCNc1cc2c(cc1O)CC[C@@H]1[C@@H]2CC[C@]2(C)[C@@H](O)CC[C@@H]12 | 15.5 | 0.741 |
| O=[N+]([O-])c1cccc2nc3ccccc3c(NCCC[N+]3([O-])CCOCC3)c12 | 1.3 | – |
| NCCCCC(N)C(=O)NCCNc1ccc(NCCNC(=O)C(N)CCCCN)c2c1C(=O)c1ccccc1C2=O (configuration not stated) | > 100 | – |
| CC(C)(C)c1ccc(-c2nc3ccc(Cl)cc3c(=O)o2)cc1 | 35.8 | – |
